# Source: patent US20250144223A1, “PROTEIN DEGRADATION COMPOUND BASED ON NAMPT TARGET PROTEIN AND APPLICATION THEREOF” (GLUETACS THERAPEUTICS (SHANGHAI) CO., LTD., priority 2021, published 2025)
# What was measured:
# [1] = biological target: T1, extracellular NAMPT (eNAMPT) (Homo sapiens, UniProt P43490); test: Western blot, eNAMPT protein degradation in HL60 and MOLT4 cell lines; type: cell-based
# T1 construct: degradation effects of compounds SIAIS630120 and SIAIS630121 of the present disclosure on eNAMPT protein in HL60 and MOLT4 cell lines; endogenous in cells; host or cells: HL60, MOLT4
# T1 sequence (P43490 whole entry): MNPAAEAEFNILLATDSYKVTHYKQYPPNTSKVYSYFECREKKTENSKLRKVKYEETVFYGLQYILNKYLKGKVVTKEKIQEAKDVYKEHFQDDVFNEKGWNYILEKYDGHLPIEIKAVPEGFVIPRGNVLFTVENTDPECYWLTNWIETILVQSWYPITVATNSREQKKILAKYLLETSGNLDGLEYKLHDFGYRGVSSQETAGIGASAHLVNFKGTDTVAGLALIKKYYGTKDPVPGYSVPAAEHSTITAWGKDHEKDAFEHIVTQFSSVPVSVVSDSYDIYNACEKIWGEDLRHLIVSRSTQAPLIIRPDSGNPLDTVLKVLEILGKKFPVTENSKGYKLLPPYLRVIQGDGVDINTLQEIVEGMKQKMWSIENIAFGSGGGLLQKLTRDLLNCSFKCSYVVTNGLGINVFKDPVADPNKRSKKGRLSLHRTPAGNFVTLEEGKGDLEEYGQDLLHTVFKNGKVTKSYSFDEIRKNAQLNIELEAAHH
# Experimental: (§1) The tumor cells used herein were cultured in a cell culture medium at 37° C. in an incubator with 5% CO2, where the cell culture medium was supplemented with 10% FBS, as well as penicillin at a final concentration of 100 U/mL and streptomycin at a final concentration of 100 μg/mL.
# (§2) Tumor cells were seeded at a specific cell density in a 6-well plate containing 2 mL of RPMI1640/DMEM medium. For SW620, HT29, MCF-7, and BEL7404 cells, the seeding density was 1×10^6 cells per well, respectively; for MOLT4, Jurkat, and HL60 cells, the seeding density was 0.5×10^6 cells/mL. […] After 24 hours of compound treatment, the supernatant was removed, and cells were washed with PBS. The cells were then placed on ice and treated with protein lysis buffer containing protease and phosphatase inhibitors. The lysate was centrifuged at 12,000 RPM for 15 minutes at 4° C., and the supernatant was collected. Equal amounts of protein were mixed with 5×SDS, and after denaturation at 95° C. for 5 minutes, the samples were either frozen at −20° C. or subjected to direct protein electrophoresis. SDS-PAGE was performed using equal amounts of protein, and proteins were transferred to a nitrocellulose membrane at 95 V and 4° C. for 90 minutes. After membrane transfer, the membrane was blocked with TBST containing 5% skim milk powder (purchased from Beijing Cowin Bioscience Co., Ltd.) at room temperature for 1 hour. […]
# Jurkat = test: CellTiter-Glo Luminescent Cell Viability Assay, half inhibitory concentration (IC50) on tumor cell proliferation; type: cell-based; settings: Homo sapiens, Jurkat cells, 72 h treatment
# Outline: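 Jurkat cells seeded at 20,000 cells/well in serum-containing RPMI1640, treated after 24 h with serially diluted compound for 72 h at 37 °C, 5% CO2. Viability read by CellTiter-Glo luminescence; IC50 calculated from growth-inhibition curves.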
# hematological tumors = settings: animal models; cited from earlier work
# HL60 tumor cells = test: In vitro cytotoxicity assay against tumor cells (DAPI staining, flow cytometry); type: cell-based; settings: 10 nM, 4th day
# Experimental: as §1, with “μg/mL. Prior to experimentation, all cells used were identified as correct cells by STR cells, and were negative for mycoplasma through routine testing.” for “μg/mL.”
# (§3) MOLT4 and HL60 tumor cells were seeded separately in 12-well plates containing 1 mL of RPMI1640 medium, with a cell seeding density of 0.5×10^6 cells/mL. On the second day, the parent inhibitor FK866 and the compounds SIAIS630120 and SIAIS630121 of the present disclosure were individually dissolved in DMSO to obtain stock solutions of the respective compounds at a concentration of 10 μM. Subsequently, 1 μL of the 10 μM compound stock solution was added to 1 mL of cell culture medium to achieve a final concentration of 10 nM. The cells were treated continuously for 4 days, and cell viability was measured once daily during this period. Specifically, cells were sampled once a day, adjusted to a concentration of 1×10^6/mL using a cell staining buffer, stained with 4′,6-diamidino-2-phenylindole dihydrochloride (DAPI) (1:250), and then analyzed with a flow cytometer. Initially, the cells were gated based on differences in cell size, followed by DAPI staining to gate for dead cells. Finally, the cytotoxic efficiency was assessed by calculating the DAPI-positive ratio.
# [2] = biological target: T2, intracellular NAMPT (iNAMPT) (Homo sapiens, UniProt P43490); test: Western blot, NAMPT protein degradation (DC50) in SW620, HT29, MCF-7, BEL7404, MOLT4, Jurkat and HL60 cells; type: cell-based; settings: tumor cells, 24 h
# T2 construct: assess the expression levels of NAMPT protein in tumor cells treated with the compounds of the present disclosure; endogenous in cells; host or cells: SW620, HT29, MCF-7, BEL7404, MOLT4, Jurkat, HL60
# T2 sequence (P43490 whole entry): as above
# Experimental: as §1, §2
# [3] = clinical trial results; cited from earlier work
# MOLT4 tumor cells = test: In vitro cytotoxicity assay against tumor cells (DAPI staining, flow cytometry); type: cell-based; settings: 10 nM, 4th day; for cytotoxicity, more effective than FK866: difference to FK866
# Experimental: as §1, with “μg/mL. Prior to experimentation, all cells used were identified as correct cells by STR cells, and were negative for mycoplasma through routine testing.” for “μg/mL.”
# as §3
smiles,measurement,setting,value
O=C(/C=C/c1cccnc1)NCCCCC1CCN(C(=O)c2ccccc2)CC1 [FK866],degradation of extracellular NAMPT (eNAMPT) protein,"[1]; 24 h, Western blot",cannot degrade iNAMPT and eNAMPT proteins
same,eNAMPT protein level compared to the DMSO control group,"[1]; MOLT4 cells, 10 nM, FIG. 5",higher levels of eNAMPT protein
same,IC50,Jurkat,0.635 nM
same,long-term survival of mice,hematological tumors,80%
same,cytotoxic effect (DAPI-positive ratio),HL60 tumor cells,less than 40%
same,degradation of intracellular NAMPT (iNAMPT) protein,[2],cannot degrade iNAMPT and eNAMPT proteins
same,toxicities in clinical trial,[3],dose-limiting toxicities such as thrombocytopenia
"O=C(/C=C/c1cccnc1)NCCCCC1CCN(C(=O)c2ccc(N3CCN(CCCCCC#Cc4cccc5c4CN(C4CCC(=O)NC4=O)C5=O)CC3)cc2)CC1 (stereo not drawn) [SIAIS630120, (E)-N-(4-(1-(4-(4-(7-(2-(2,6-dioxopiperidin-3-yl)-1-oxoisoindolin-4-yl)hept-6-yn-1-yl)piperazin-1-yl)benzoyl)piperidin-4-yl)butyl)-3-(pyridin-3-yl)acrylamide]",IC50,Jurkat,6.24 nM
same,cytotoxic effect (DAPI-positive ratio),HL60 tumor cells,95%
same,cytotoxicity (DAPI-positive ratio),MOLT4 tumor cells,approximately 50%
same,"cytotoxicity, more effective than FK866",MOLT4 tumor cells,20%
"O=C(/C=C/c1cccnc1)NCCCCC1CCN(C(=O)c2ccc(N3CCN(CCCCCCC#Cc4cccc5c4CN(C4CCC(=O)NC4=O)C5=O)CC3)cc2)CC1 (stereo not drawn) [SIAIS630121, (E)-N-(4-(1-(4-(4-(8-(2-(2,6-dioxopiperidin-3-yl)-1-oxoisoindolin-4-yl)oct-7-yn-1-yl)piperazin-1-yl)benzoyl)piperidin-4-yl)butyl)-3-(pyridin-3-yl)acrylamide]",IC50,Jurkat,4.83 nM
same,cytotoxic effect (DAPI-positive ratio),HL60 tumor cells,95%
same,cytotoxicity (DAPI-positive ratio),MOLT4 tumor cells,approximately 50%
same,"cytotoxicity, more effective than FK866",MOLT4 tumor cells,20%
